Measurements taken from US6500825B2, “Substituted 2-aminoacetamides and the use thereof” (Euro-Celtique S.A., priority 1997, dated 2002).

How the values were obtained:
[1] = tested on: maximal electroshock-induced seizures (MES); experiment: Maximal electroshock-induced seizures (MES) iv in mouse; type: in vivo; conditions: administered iv 10 min before the test, tonic hindlimb extensor response
Experimental: The ability of selected 2-methylpropanamide derivatives to block maximal electroshock-induced seizures (MES) was determined by the following procedure. Seizures were induced by application of current (50 mA, 60 pulses/sec, 0.8 msec pulse width, 1 sec duration, D.C.) using a Ugo Basile ECT device (model 7801). Mice were restrained by gripping the loose skin on their dorsal surface and saline-coated corneal electrodes were held lightly against the two cornea. […] A tonic seizure was defined as a hindlimb extension in excess of 90 degrees from plane of the body. The 2-methylpropanamides tested were administered iv to mice 10 min before the test procedure.

[2] = tested on: voltage-sensitive Na+ channels; experiment: Electrophysiological assay: patch-clamp recordings of voltage-sensitive Na+ currents in acutely dissociated rat hippocampal neurons; type: cell-based
Experimental: Electrophysiological Assay
Cell preparation: Acute cultures of rat hippocamnpal neurons were prepared daily using a modification of procedures described previously (Kuo and Bean, Mol. Pharm. 46:716-725 (1994)). Briefly, hippocampi were isolated from 3-11 day old rat pup brains (Sprague-Dawley; Charles River) and were sectioned, by hand, into 0.5-1 mm thick transyerse slices (Whittemore and Koerner, Eur. J. Pharm. 192:435-438 (1991)). Slices were incubated for at least 30 min at room temperature (20-24° C.) in an oxygenated medium (124 mM NaCl, 3.3 mM KCl, 2.4 mM MgSO4, 2.5 mM CaCl2, 1.2 mM KH2PO4, 26 mM NaHCO3, pH=7.4) continuously bubbled with 5% CO2/95% O2. Prior to recording, 4-5 slices were transferred to an oxygenated dissociation medium (82 mM NaSO4, 30 mM K2SO4, 3 mM MgCl2, 2 mM HEPES, 26 mM NaHCO3, 0.001% phenol red, pH=7.4) containing 3 mg/mL protease XXIII (Sigma, St. Louis, Mo.) and incubated for 10-15 min at 37° C., while continuously bubbling with 5% CO2/95% O2. Enzymatic digestion was terminated by transferring the slices to dissociation medium without bicarbonate, supplemented with 1 mg/mL bovine serum albumin and 1 mg/mL trypsin inhibitor (Sigma, St. Louis, Mo.). Slices were then transferred to a 35 mm culture dish containing dissociation medium without bicarbonate, and triturized with a fire-polished glass Pasteur pipette to release single cells. […]
Patch-clamp recordings of voltage-sensitive Na^+ currents: Whole-cell voltage-clamp recordings were made using conventional patch-clamp technique (Hamill et al., Pfluegers Arch. 391:85-100 (1981)) with an Axopatch 200A amplifier (Axon Instruments, Foster City, Calif.). […] Currents were recorded at room temperature (22-25° C.), filtered at 5 kHz with 4-pole Bessel filter, digitized at 20-50-μs intervals, and stored using Digidata 1200 analog/digital interface with Pclamp6/Clampex software (Axon Instruments). […] The inhibitory potency of drugs was assessed by measuring reductions in the peak amplitude of […] currents induced by increasing concentrations of compounds tested. […]

SMILES | Kd ([2]; inactivated Na+ channels, acutely dissociated rat hippocampal neurons, read-out: apparent antagonist dissociation constant (Kd) for inactivated Na+ channels) [nM] | melting point [°C] | iv MES activity (number protected/number screened) [1] | inhibition of voltage-gated Na+ currents ([2]; acutely dissociated rat hippocampal neurons) | effect on Na+ currents activated from a holding membrane voltage of −100 mV ([2]; concentrations between 0.1-10 μM, holding voltage −100 mV)
CC(C)(NCc1ccc(Oc2ccc(F)cc2F)cc1)C(N)=O [2,4-difluorophenoxy, 2-(4-(2,4-Difluorophenoxy)benzylamino)-2-methylpropanamide] |  |  | 8/8 |  | 
CC(C)(NCc1ccc(Oc2ccc3c(c2)OCO3)cc1)C(N)=O [3,4-methylenedioxyphenoxy, 2-(4-(3,4-Methylenedioxyphenoxy)benzylamino)-2-methyl-propanamide] |  |  | 8/8 |  | 

Second part, led by results:

Kd ([2]; inactivated Na+ channels, acutely dissociated rat hippocampal neurons, read-out: apparent antagonist dissociation constant (Kd) for inactivated Na+ channels) [nM] | melting point [°C] | SMILES | iv MES activity (number protected/number screened) [1] | inhibition of voltage-gated Na+ currents ([2]; acutely dissociated rat hippocampal neurons) | effect on Na+ currents activated from a holding membrane voltage of −100 mV ([2]; concentrations between 0.1-10 μM, holding voltage −100 mV)
~1200 |  | CC(C)(NCc1ccc(OCc2ccccc2F)cc1)C(N)=O [2-(4-(2-Fluorobenzyloxy)benzylamino)-2-methyl-propanamide] |  | dose-dependent inhibition | very little effect
 | 103 to 106 | CC(C)(NCc1ccc(Oc2ccc(F)cc2)cc1)C(N)=O [4-fluorophenoxy, 2-(4-(4-Fluorophenoxy)benzylamino)-2-methylpropanamide] | 8/8 |  | 
 | 81 to 83 | CC(C)(NCc1ccc(Oc2ccc3c(c2)CCC3)cc1)C(N)=O [Example 5-indanoxy, 2-(4-(5-Indanoxy)benzylamino)-2-methylpropanamide] | 1/8 |  | 
